Literature values, collected in patent US7261867B1 (Eastman Kodak Company, priority 2006, dated 2007).

Assays:
Settings in all cases: 0.5% concentration in polymethylmethacrylate bone cement
Staphylococcus aureus = test system: Staphylococcus aureus
Pseudomonas aeruginosa = test system: Pseudomonas aeruginosa
Escherichia coli = test system: Escherichia coli

Measured: inhibition of bacterial growth

[Cl][Ag] [Silver chloride]
significantly inhibit: Staphylococcus aureus | Pseudomonas aeruginosa | Escherichia coli

O=S(=O)([O-])[O-].[Ag+].[Ag+] [silver sulphate]
significantly inhibit: Staphylococcus aureus | Pseudomonas aeruginosa | Escherichia coli

silver oxide
significantly inhibit: Staphylococcus aureus | Pseudomonas aeruginosa | Escherichia coli
